For 28 compounds, IC50 results are on record in patent publication US11999732B2, “P2X3 receptor antagonists” (RECORDATI INDUSTRIA CHIMICA E FARMACEUTICA SPA, priority 2018, dated 2024).

SMILES strings stand for the structures.

The first assay has as its target T1, human P2X3 receptor (Homo sapiens, UniProt P56373).
T1 construct: expressed in transfected cells; host or cells: CHO-K1
T1 sequence (P56373 1-397): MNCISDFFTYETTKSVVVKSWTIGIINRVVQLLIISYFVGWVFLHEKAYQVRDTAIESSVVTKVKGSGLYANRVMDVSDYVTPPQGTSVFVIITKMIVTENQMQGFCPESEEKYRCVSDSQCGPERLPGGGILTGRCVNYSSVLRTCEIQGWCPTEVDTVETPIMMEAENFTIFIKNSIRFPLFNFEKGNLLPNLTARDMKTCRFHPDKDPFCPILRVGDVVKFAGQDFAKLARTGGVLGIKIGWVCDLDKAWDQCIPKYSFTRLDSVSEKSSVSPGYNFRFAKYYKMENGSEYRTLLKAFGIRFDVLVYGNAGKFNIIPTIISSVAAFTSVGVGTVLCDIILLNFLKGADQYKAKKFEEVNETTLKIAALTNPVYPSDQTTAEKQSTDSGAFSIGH
As to the kind of experiment: Calcium luminescence (photoprotein) assay in CHO-K1 cells co-expressing human P2X3 receptor, α,β-Met-ATP stimulation, FLEXSTATION readout. Format: cell-based. The following applies: Table 6; human P2X3 receptor antagonist activity, CHO-K1 cells, α,β-Met-ATP; read-out: h-P2X3 IC50. The gist of the method:
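CHO-K1 cells co-expressing human P2X3 and a Ca2+-sensitive photoprotein, loaded with coelenterazine in Tyrode's buffer (pH 7.4) for 4 h at 37 °C. Compounds injected 4 min before α,β-Met-ATP stimulation; luminescence recorded, IC50 and pseudo-Hill slope from nonlinear regression of inhibition curves.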
Turning to `O=C1N(Cc2ccc(Cl)cc2)c2cc(N3CCOCC3)cnc2C2=NCC(C3CC3)N12` (stereo not shown) [Example 12, 6-(4-chlorobenzyl)-3-cyclopropyl-8-(morpholin-4-yl)-2,6-dihydroimidazo[1,2-c]pyrido[2,3-e]pyrimidin-5(3H)-one], the IC50 stood at 428 nM.
The same measure, in the same setting: the result for `COC1CCN(c2cnc3c(c2)N(Cc2ccc(Cl)cc2)C(=O)N2CC(C(C)C)N=C32)CC1` (stereo not shown) [Example 16, 6-(4-chlorobenzyl)-8-(4-methoxypiperidin-1-yl)-2-(propan-2-yl)-2,6-dihydroimidazo[1,2-c]pyrido[2,3-e]pyrimidin-5(3H)-one] reads 2230 nM.
On to `O=C1N(Cc2ccc(Cl)cc2)c2cc(N3CCOCC3)cnc2C2=NCC(c3ccccc3)N12` (stereo not shown) [Example 45, 6-(4-chlorobenzyl)-8-(morpholin-4-y1)-3-phenyl-2,6-dihydroimidazo[1,2-c]pyrido[2,3-e]pyrimidin-5(3H)-one], for which the IC50 worked out at 200 nM.
The same measure, in the same setting: the result for `CC(C)(C)C1C(=O)N=C2c3ncc(N4CCOCC4)cc3N(Cc3ccc(Cl)cc3)C(=O)N21` (stereo not shown) [Example 68, 3-tert-butyl-6-(4-chlorobenzyl)-8-(morpholin-4-yl)imidazo[1,2-c]pyrido[2,3-e]pyrimidine-2,5(3H,6H)-dione] reads 109 nM.
Still for that read-out and setting: the same measure for `COc1ccc(CN2C(=O)N3C(=NCC3c3ccccc3)c3ncc(N4CCOCC4)cc32)cc1` (stereo not shown) [Example 29, 6-(4-methoxybenzyl)-8-(morpholin-4-yl)-3-phenyl-2,6-dihydroimidazo[1,2-c]pyrido[2,3-e]pyrimidin-5(3H)-one]: 368 nM; for `CC(C)CCC1CN2C(=O)N(Cc3ccc(Cl)cc3)c3cc(N4CCOCC4)cnc3C2=N1` (stereo not shown) [Example 62, 6-(4-chlorobenzyl)-2-(3-methylbutyl)-8-(morpholin-4-yl)-2,6-dihydroimidazo[1,2-c]pyrido[2,3-e]pyrimidin-5(3H)-one]: 720 nM; for `CC(C)CC1CN=C2c3ncc(N4CCOCC4)cc3N(Cc3ccc(Cl)cc3)C(=O)N21` (stereo not shown) [Example 31, 6-(4-chlorobenzyl)-3-(2-methylpropyl)-8-(morpholin-4-yl)-2,6-dihydroimidazo[1,2-c]pyrido[2,3-e]pyrimidin-5(3H)-one]: 229 nM.
Still for that read-out and setting: the same measure for `O=C1N2CC3(CCOCC3)N=C2c2ncc(N3CCOCC3)cc2N1Cc1ccc(Cl)cc1` [Example 40, 6-(4-chlorobenzyl)-8-(morpholin-4-yl)-2′,3′,5′,6′-tetrahydrospiro[imidazo[1,2-c]pyrido[2,3-e]pyrimidine-2,4′-pyran]-5(6H)-one]: 1050 nM; for `COc1ccc(CN2C(=O)N3C(=NC(=O)C3C(C)(C)C)c3ncc(N4CCOCC4)cc32)cc1` (stereo not shown) [Example 69, 3-tert-butyl-6-(4-methoxybenzyl)-8-(morpholin-4-yl)imidazo[1,2-c]pyrido[2,3-e]pyrimidine-2,5(3H,6H)-dione]: 98.3 nM; for `COc1ccc(CN2C(=O)N3CC(C(C)(C)C)N=C3c3ncc(N4CCOCC4)cc32)cc1` (stereo not shown) [Example 32, 2-tert-butyl-6-(4-methoxybenzyl)-8-(morpholin-4-yl)-2,6-dihydroimidazo[1,2-c]pyrido[2,3-e]pyrimidin-5(3H)-one]: 124 nM.
Turning to `COc1cc(CN2C(=O)N3CC(C4CCCCC4)N=C3c3ncc(N4CCOCC4)cc32)cc(OC)c1` (stereo not shown) [Example 43, 2-cyclohexyl-6-(3,5-dimethoxybenzyl)-8-(morpholin-4-yl)-2,6-dihydroimidazo[1,2-c]pyrido[2,3-e]pyrimidin-5(3H)-one], the IC50 was 112 nM.
Still for that read-out and setting: the result for `COc1cc(CN2C(=O)N3CC(C(C)C)N=C3c3ncc(NC4CCOCC4)cc32)cc(OC)c1` (stereo not shown) [Example 49, 6-(3,5-dimethoxybenzyl)-2-(propan-2-yl)-8-(tetrahydro-2H-pyran-4-ylamino)-2,6-dihydroimidazo[1,2-c]pyrido[2,3-e]pyrimidin-5(3H)-one] reads 872 nM; that for `COc1cc(CN2C(=O)N3C(=NCC3CC(C)C)c3ncc(N4CCOCC4)cc32)cc(OC)c1` (stereo not shown) [Example 35, 6-(3,5-dimethoxybenzyl)-3-(2-methylpropyl)-8-(morpholin-4-yl)-2,6-dihydroimidazo[1,2-c]pyrido[2,3-e]pyrimidin-5(3H)-one], 793 nM; that for `COc1ccc(CN2C(=O)N3C(=NCC3COC(C)(C)C)c3ncc(N4CCOCC4)cc32)cc1` (stereo not shown) [Example 67, 3-(tert-butoxymethyl)-6-(4-methoxybenzyl)-8-(morpholin-4-yl)-2,6-dihydroimidazo[1,2-c]pyrido[2,3-e]pyrimidin-5(3H)-one], 218 nM.

Staying with this assay, now noted: Table 7; human P2X3 receptor antagonist activity, CHO-K1 cells, α,β-Met-ATP; read-out: h-P2X3 IC50.
For `COc1cc(Cn2c(=O)n3c(C)c(C(C)C)nc3c3ncc(N4CCN(C(C)=O)CC4)cc32)cc(OC)c1` [Example 84, 8-(4-acetylpiperazin-1-yl)-6-(3,5-dimethoxybenzyl)-3-methyl-2-(propan-2-yl)imidazo[1,2-c]pyrido[2,3-e]pyrimidin-5(6H)-one], the IC50 was determined as 259 nM.
On the same count and under the same terms, the result for `COc1ccc(Cn2c(=O)n3c(C)c(C(C)C)nc3c3ncc(N4CCOCC4)cc32)cc1` [Example 89, 6-(4-methoxybenzyl)-3-methyl-8-(morpholin-4-yl)-2-(propan-2-yl)imidazo[1,2-c]pyrido[2,3-e]pyrimidin-5(6H)-one] reads 575 nM; that for `O=c1n(Cc2ccc(Cl)cc2)c2cc(N3CCOCC3)cnc2c2nnc(Cc3cccnc3)n12` [Example 100, 6-(4-chlorobenzyl)-8-(morpholin-4-y1)-3-(pyridin-3-ylmethyl)pyrido[2,3-e][1,2,4]triazolo[4,3-c]pyrimidin-5(6H)-one], 153 nM.
The same measure, in the same setting: the result for `CC(C)Cc1cn2c(=O)n(Cc3ccc(Cl)cc3)c3cc(N4CC5(COC5)C4)cnc3c2n1` [Example 73, 6-(4-chlorobenzyl)-2-(2-methylpropyl)-8-(2-oxa-6-azaspiro[3.3]heptan-6-yl)imidazo[1,2-c]pyrido[2,3-e]pyrimidin-5(6H)-one] reads 917 nM.

The same assay, now with this note: Table 8; human P2X3 receptor antagonist activity, CHO-K1 cells, α,β-Met-ATP; read-out: h-P2X3 IC50.
`COCCNc1cnc2c(c1)c(Cc1cc(OC)cc(OC)c1)nn1c(CC(C)C)nnc21` [Example 118, 6-(3,5-dimethoxybenzyl)-n-(2-methoxyethyl)-3-(2-methylpropyl)pyrido[2,3-d][1,2,4]triazolo[4,3-b]pyridazin-8-amine]: the IC50 was determined as 1050 nM.
Take `COc1cc(Cc2nn3c(COC(C)C)nnc3c3ncc(N4CCOCC4)cc23)cc(OC)c1` [Example 119, 6-(3,5-dimethoxybenzyl)-8-(morpholin-4-yl)-3-[(propan-2-yloxy)methyl]pyrido[2,3-d][1,2,4]triazolo[4,3-b]pyridazine]: the IC50 came to 1210 nM.
On the same count and under the same terms, the result for `COc1ccc(Cc2nn3c(C(C)(C)C)nnc3c3ncc(N4CCOCC4)cc23)cc1` [Example 123, 3-tert-butyl-6-(4-methoxybenzyl)-8-(morpholin-4-yl)pyrido[2,3-d][1,2,4]triazolo[4,3-b]pyridazine] reads 246 nM.
On the same count and under the same terms, the same measure for `COc1cc(Cc2nn3c(CC(C)C)nnc3c3ncc(N4CCOCC4)cc23)cc(OC)c1` [Example 116, 6-(3,5-dimethoxybenzyl)-3-(2-methylpropyl)-8-(morpholin-4-yl)pyrido[2,3-d][1,2,4]triazolo[4,3-b]pyridazine]: 469 nM.

The same assay, now with this note: Table 9; human P2X3 receptor antagonist activity, CHO-K1 cells, α,β-Met-ATP; read-out: h-P2X3 IC50.
As to `O=c1n(Cc2ccc(Cl)cc2)c2cc(N3CCOCC3)cnc2c2nnc(COC3CCOCC3)n12` [Example 188, 6-(4-chlorobenzyl)-8-(morpholin-4-yl)-3-[(tetrahydro-2H-pyran-4-yloxy)methyl]pyrido[2,3-e][1,2,4]triazolo[4,3-c]pyrimidin-5(6H)-one], the IC50 amounted to 528 nM.
Same read-out and setting: the same measure for `COc1ccc(CN2C(=O)N3C(=NC(=O)C3C(C)C)c3ncc(N4CCOCC4)cc32)cc1` (stereo not shown) [Example 164, 6-(4-methoxybenzyl)-8-(morpholin-4-yl)-3-(propan-2-yl)imidazo[1,2-c]pyrido[2,3-e]pyrimidine-2,5(3H,6H)-dione]: 188 nM; for `COc1cc(CN2C(=O)N3CC(C)(C)CN=C3c3ncc(N4CCOCC4)cc32)cc(OC)c1` [Example 147, 5-(3,5-dimethoxybenzyl)-9,9-dimethyl-3-(morpholin-4-yl)-5,8,9,10-tetrahydro-6H-pyrido[2,3-e]pyrimido[1,2-c]pyrimidin-6-one]: 2440 nM; for `COc1cc(CN2C(=O)N3CC(C)(C)CN=C3c3ncc(NCCO)cc32)cc(OC)c1` [Example 144, 5-(3,5-dimethoxybenzyl)-3-[(2-hydroxyethyl)amino]-9,9-dimethyl-5,8,9,10-tetrahydro-6H-pyrido[2,3-e]pyrimido[1,2-c]pyrimidin-6-one]: 2480 nM.
Same read-out and setting: the result for `COc1ccc(Cn2c(=O)n3nc(C(C)(C)C)nc3c3ncc(N4CCOCC4)cc32)cc1` [Example 157, 2-tert-butyl-6-(4-methoxybenzyl)-8-(morpholin-4-yl)pyrido[2,3-e][1,2,4]triazolo[1,5-c]pyrimidin-5(6H)-one] reads 495 nM.

The same assay, now with this note: running text b1263; read-out: inhibition (human P2X3 receptor).
As to `CC1(c2nnc3c4ncc(N5CCOCC5)cc4n(Cc4ccc(Cl)cc4)c(=O)n23)CC1` [Example 102, 6-(4-chlorobenzyl)-3-(1-methylcyclopropyl)-8-(morpholin-4-yl)pyrido[2,3-e][1,2,4]triazolo[4,3-c]pyrimidin-5(6H)-one], the IC50 was 25.5 nM.
